The nature of data set [1]: Transport across the BBB, in vitro co-culture cell assay (transwell). The conditions noted are these: pH 7.4.
From the text: (§1) The evaluation method chosen to test the compounds of formula (I) and (II) of the invention was a cell-based assay consisting of a co-culture of brain endothelial cells and astrocytes, which allows to evaluate or to predict the transport of compounds through the BBB. […] Under these conditions endothelial cells are able to reach the confluence mimicking the BBB. […] Is commonly used model for permeation studies and toxicity of compounds across the BBB.
(§2) The co-culture assay was used to determine the capacity of the constructs cargo-shuttle to cross the BBB. […] The permeability tests were performed in Ringer-HEPES buffer at pH 7.4. The compound of interest was dissolved in the buffer to the desired concentration.
(§3) Once the endothelial cells were confluent on the filters (transwells) these were washed with Ringer-HEPES buffer. The acceptor well was filled with 800 μL of Ringer-HEPES buffer and the donor well with 200 μL of the solution of the compound to be studied. The system was incubated at 37° C. and 5% CO2 for 2 h. After that time the content of the acceptor and donor compartments were analyzed by HPLC, ICP or fluorescence measurements (depending on cargo anchored to the shuttle). Transport was also confirmed by mass spectrometry MALDI-TOF.
(§4) The apparent permeability was calculated using the following equation: Papp=(dQ/dt)*(1/A)*(1/C0)(cm/s)
(§5) Where (dQ/dt) is the amount of compound present in the compartment acceptor function of time (nmol/s). A is the area of the filter (cm2) and C0 is the initial concentration of the compound applied in the donor compartment (nmol/mL).
(§6) The values of permeability equal to or higher than 1×10-6 cm/s are considered exceptionally good, and values equal to or higher than 0.1×10-6 cm/s are considered good.
The test system of data set [2] is co-culture of brain endothelial cells and astrocytes. The description is as above. The conditions noted are these: — = not detected in acceptor compartment; for Transport (%) (2 h): percentage of transport after a 2 hours assay; for Papp (×10^6) cm/s: apparent permeability, 2 h at 37° C., Ringer-HEPES buffer pH 7.4, triplicate, 50 μM or 0.75 nM (particles).
From the text: as §1, §2, §3, §4, §5, §6
A short description of data set [3]: Stability of the shuttle in human serum. The note with it: for half-life: human, serum.
Method: At a range of times, 50 μL aliquots were collected to which methanol was added in order to precipitate the serum proteins. The samples were centrifuged, filtered and analysed by HPLC to determine the degree of degradation of the BBB-shuttle
In data set [4] the test system is co-culture of brain endothelial cells and astrocytes.
From the text: as §1, §2, §3, §4, §5, §6

Read-outs that look alike come from different tables or passages of the source. Where a SMILES comes first, the peptide text is derived from it. [ ]: non-standard residue; d: D form. Quantum Dot = not defined here

One may read the Papp as a coefficient for how fast a substance crosses the barrier. A higher Papp goes with fast passage. Regarding `CSCC[C@@H](NC(=O)[C@@H](Cc1c[nH]c2ccccc12)NC(=O)[C@@H](CO)NC(=O)[C@H]1CCCN1C(=O)[C@H](NC(=O)[C@@H](Cc1c[nH]c2ccccc12)NC(=O)[C@H]1CCCN1C(=O)[C@@H](CCCCN)NC(=O)[C@@H](CCCCN)NC(=O)[C@@H](CC(C)C)NC(=O)[C@H](NC(=O)[C@@H](Cc1ccc2ccccc2c1)NC(=O)[C@@H](Cc1ccccc1)N(C)C(=O)[C@@H](C)N)C(C)C)C(C)C)C(=O)N1CCC[C@@H]1C(=O)N1CCC[C@@H]1C(=O)N[C@H](CCCNC(=N)N)C(=O)N[C@H](Cc1c[nH]cn1)C(=O)N[C@@H](C(N)=O)[C@H](C)O` [Example 12, H-D-Ala-D-NMePhe-D-Nal(2)-D-Val-D-Leu-D-Lys-D-Lys-D-Pro-D-Trp-D-Val-D-Pro-D-Ser-D-Trp-D-Met-D-Pro-D-Pro-D-Arg-D-His-D-Thr-NH2] (HELM PEPTIDE1{[dA].[CN([C@H](Cc1ccccc1)C(=O)[*:2])[*:1]].[O=C([C@@H](Cc1ccc2ccccc2c1)N[*:1])[*:2]].[dV].[dL].[dK].[dK].[dP].[dW].[dV].[dP].[dS].[dW].[dM].[dP].[dP].[dR].[dH].[dT].[am]}$$$$V2.0), the Papp in data set [1] stood at 0.14 ± 0.01 ×10⁻⁶ cm/s. The “Transport (%) (2 h)” value in data set [2] came to 0.2 ± 0.04%.

On to “Quantum Dot-Gly-D-Pro-D-Trp-D-Val-D-Pro-D-Ser-D-Trp-D-Met-D-Pro-D-Pro-D-Arg-D-His-D-Thr-NH2 ({Quantum Dot}-G[dP][dW][dV][dP][dS][dW][dM][dP][dP][dR][dH][dT]-NH2; reading uncertain; also: quantum dot nanoparticle conjugate, printed as Quantum Dot-Gly-D-Pro-D-Trp-D-Val-D-Pro-D-Ser-D-Trp-D-Met-D-Pro-D-Pro-D-Arg-D-His-D-Thr-NH2) [Example 10]”, for which, in data set [2], the “Papp (×10^6) cm/s” value was 0.27 ± 0.03 (×10^6) cm/s and the “Transport (%) (2 h)” value amounted to 0.31 ± 0.02%.

Turning to `CSCC[C@@H](NC(=O)[C@@H](Cc1c[nH]c2ccccc12)NC(=O)[C@@H](CO)NC(=O)[C@H]1CCCN1C(=O)[C@H](NC(=O)[C@@H](Cc1c[nH]c2ccccc12)NC(=O)[C@H]1CCCN1C(=O)[C@@H](N)Cc1ccc(O)c(O)c1)C(C)C)C(=O)N1CCC[C@@H]1C(=O)N1CCC[C@@H]1C(=O)N[C@H](CCCNC(=N)N)C(=O)N[C@H](Cc1c[nH]cn1)C(=O)N[C@@H](C(N)=O)[C@H](C)O` [Example 8, L-dopa-D-Pro-D-Trp-D-Val-D-Pro-D-Ser-D-Trp-D-Met-D-Pro-D-Pro-D-Arg-D-His-D-Thr-NH2] (HELM PEPTIDE1{[N[C@@H](Cc1ccc(O)c(O)c1)C(=O)[*:2]].[dP].[dW].[dV].[dP].[dS].[dW].[dM].[dP].[dP].[dR].[dH].[dT].[am]}$$$$V2.0), in data set [1], the Papp is 8.46 ± 2.1 ×10⁻⁶ cm/s. The “Transport (%) (2 h)” value in data set [2] was determined as 10.1 ± 1.3%.

As usually defined, the half-life is how long it takes for the measured level to halve. A high value points to slow loss. On to `CSCC[C@@H](NC(=O)[C@H]1CCCN1C(=O)[C@H]1CCCN1C(=O)[C@@H](CCCNC(=N)N)NC(=O)[C@@H](Cc1c[nH]cn1)NC(=O)[C@H](N)[C@H](C)O)C(=O)N[C@H](Cc1c[nH]c2ccccc12)C(=O)N[C@H](CO)C(=O)N1CCC[C@@H]1C(=O)N[C@@H](C(=O)N[C@H](Cc1c[nH]c2ccccc12)C(=O)N1CCC[C@@H]1C(N)=O)C(C)C` [compound 2, H-D-Thr-D-His-D-Arg-D-Pro-D-Pro-D-Met-D-Trp-D-Ser-D-Pro-D-Val-D-Trp-D-Pro-NH2, reference compound] (HELM PEPTIDE1{[dT].[dH].[dR].[dP].[dP].[dM].[dW].[dS].[dP].[dV].[dW].[dP].[am]}$$$$V2.0), for which the half-life in data set [3] was above 24 h. In addition, the Papp in data set [1] was determined as 9.9 ± 1.6 ×10⁻⁶ cm/s. Also, the “Transport (%) (2 h)” value in data set [2] is 11.7 ± 6.4%.

On to “Rhodamine b-L-Lys(Antibody)-D-Pro-D-Trp-D-Val-D-Pro-D-Ser-D-Trp-D-Met-D-Pro-D-Pro-D-Arg-D-His-D-Thr-NH2 [Example 18]”, for which the “Papp (×10^6) cm/s” value in data set [2] is given as 0.18 ± 0.05 (×10^6) cm/s.

As to `CSCC[C@@H](NC(=O)[C@@H](Cc1c[nH]c2ccccc12)NC(=O)[C@@H](CO)NC(=O)[C@H]1CCCN1C(=O)[C@H](NC(=O)[C@@H](Cc1c[nH]c2ccccc12)NC(=O)[C@H]1CCCN1C(=O)c1ccc2c(c1)C(=O)OC21c2ccc(O)cc2Oc2cc(O)ccc21)C(C)C)C(=O)N1CCC[C@@H]1C(=O)N1CCC[C@@H]1C(=O)N[C@H](CCCNC(=N)N)C(=O)N[C@H](Cc1c[nH]cn1)C(=O)N[C@@H](C(N)=O)[C@H](C)O` [Example 9, 5(6)-Carboxyfluorescein-D-Pro-D-Trp-D-Val-D-Pro-D-Ser-D-Trp-D-Met-D-Pro-D-Pro-D-Arg-D-His-D-Thr-NH2] (HELM PEPTIDE1{[O=C1OC2(c3ccc(O)cc3Oc3cc(O)ccc32)c2ccc(C(=O)[*:2])cc21].[dP].[dW].[dV].[dP].[dS].[dW].[dM].[dP].[dP].[dR].[dH].[dT].[am]}$$$$V2.0), the Papp in data set [1] came to 16.2 ± 1.3 ×10⁻⁶ cm/s. For the same compound, the “Transport (%) (2 h)” value in data set [2] is 17.1 ± 2.6%.

Regarding `CSCC[C@@H](NC(=O)[C@@H](Cc1c[nH]c2ccccc12)NC(=O)[C@@H](CO)NC(=O)[C@H]1CCCN1C(=O)[C@H](NC(=O)[C@@H](Cc1c[nH]c2ccccc12)NC(=O)[C@H]1CCCN1)C(C)C)C(=O)N1CCC[C@@H]1C(=O)N1CCC[C@@H]1C(=O)N[C@H](CCCNC(=N)N)C(=O)N[C@H](Cc1c[nH]cn1)C(=O)N[C@@H](C(N)=O)[C@H](C)O` [Example 1, H-D-Pro-D-Trp-D-Val-D-Pro-D-Ser-D-Trp-D-Met-D-Pro-D-Pro-D-Arg-D-His-D-Thr-NH2] (HELM PEPTIDE1{[dP].[dW].[dV].[dP].[dS].[dW].[dM].[dP].[dP].[dR].[dH].[dT].[am]}$$$$V2.0), in data set [3], the half-life is above 24 h. The compound also came in with a Papp in data set [1] of 21.4 ± 2.1 ×10⁻⁶ cm/s. Besides, the “Transport (%) (2 h)” value in data set [2] was 25.1 ± 3%.

For the compound “H-Gly-D-Pro-D-Trp-D-Val-D-Pro-D-Ser-D-Trp-D-Met-D-Pro-D-Pro-D-Arg-D-His-D-Thr-NH2 [Example 2]”, the “Transport (%) (2 h)” value in data set [4] was found to be 22.3 ± 2.6%. In data set [4] (pH 7.4), the “Papp (×10^6) cm/s” value is 19.4 ± 1.8 (×10^6) cm/s.

“nanoparticle superparamagnetic iron oxide (SPION)-Gly-D-Pro-D-Trp-D-Val-D-Pro-D-Ser-D-Trp-D-Met-D-Pro-D-Pro-D-Arg-D-His-D-Thr-NH2 ({SPION}-G[dP][dW][dV][dP][dS][dW][dM][dP][dP][dR][dH][dT]-NH2) [Example 11]”: in data set [2], the “Papp (×10^6) cm/s” value was 0.19 ± 0.07 (×10^6) cm/s and the “Transport (%) (2 h)” value is reported as 0.22 ± 0.05%.

Take “Antibody Avastin partially reduced and trapped with Ellman's reagent: bevacizumab (Avastin) antibody cargo, partially reduced and trapped with Ellman's reagent”: in data set [2], the “Papp (×10^6) cm/s” value is given as 0.054 ± 0.005 (×10^6) cm/s and the “Transport (%) (2 h)” value amounted to 0.064 ± 0.006%.

For the compound “Rhodamine b-L-Lys(Antibody)-D-Pro-D-Trp-D-Val-D-Pro-D-Ser-D-Trp-D-Met-D-Pro-D-Pro-D-Arg-D-His-D-Thr-NH2 [Example 17]”, in data set [2], the “Papp (×10^6) cm/s” value is 0.16 ± 0.10 (×10^6) cm/s.

On to “Rhodamine b-L-Lys(Antibody)-D-Pro-D-Trp-D-Val-D-Pro-D-Ser-D-Trp-D-Met-D-Pro-D-Pro-D-Arg-D-His-D-Thr-NH2 [Example 20]”, for which the “Papp (×10^6) cm/s” value in data set [2] is recorded as 0.36 ± 019 (×10^6) cm/s.

Turning to “H-THRPPMWSPVWP-NH2 [compound 1, H-L-Thr-L-His-L-Arg-L-Pro-L-Pro-L-Met-L-Trp-L-Ser-L-Pro-L-Val-L-Trp-L-Pro-NH2, reference compound]”, in data set [3] (150 μM, 37° C., 90% human serum), the “Degradation / half-life time in human serum (in words)” value was “rapidly degraded”. Further, the half-life in data set [3] is below 1 h. In data set [1], this compound yielded a Papp of 12.5 ± 5.2 ×10⁻⁶ cm/s. Besides, the “Transport (%) (2 h)” value in data set [2] is 14.9 ± 2.5%.
